Entries after “also recorded” stand apart in the source; their conditions may differ. Where a SMILES comes first, the peptide text is derived from it. The star is where a group is joined. Cbz = O=C(OCc1ccccc1)*; CH2F = FC*
Experiments:
[1] = tested on: bovine cartilage explants; assay: Apoptosis (TUNEL) in mechanically injured bovine cartilage explants; format: cell-based; conditions: for Mean (±SD) apoptosis rates, Loaded + Agent: bovine femoral condyle cartilage, loaded at 23 MPa, in vitro, n = 8 to 10
Excerpt: Cartilage explants. Macroscopically normal weight bearing portions of freshly slaughtered skeletally mature bovine femoral condyles were selected from animals between 2 and 6 years of age (Animal Technologies, Austin, Tex.). Only joints without visible signs of degeneration or aging were selected. Using sterile techniques, full thickness cartilage was separated from underlying subchondral bone with a scalpel and 5 mm diameter cylindrical explants, ranging from 1 to 1.8 mm in height, cored out using a dermal punch (Acuderm, Inc., Ft. Lauderdale, Fla.). Explants taken from adjacent sites were used as matched controls for each group in each experiment to minimize variation in cartilage response due to differences in thickness and location within the joint. Each explant was weighed and allowed to stabilize at 37° C. and 5% CO2 for 48 hours in 1 ml of Dulbecco's modified Eagle's medium (DMEM) supplemented with 10% fetal bovine serum (FBS), L-glutamine, antibiotics and 50 μg/ml ascorbic acid.
Full thickness bovine cartilage explants, 5 mm in diameter, were subjected to a single static mechanical load of 7, 14 or 23 MPa for 500 msec. This model simulates traumatic cartilage injury and the loads were similar in magnitude to those generated during traumatic joint injury. Glycosaminoglycan (GAG) release and percent apoptotic cells were measured. The effect of a pan-caspase inhibitor, z-VAD.fmk [benzyloxycarbonyl-Val-Ala-Asp (OMe) fluoromethylketone] in preventing chondrocyte apoptosis was determined. z-VAD.fmk is a fluoromethylketone irreversible inhibitor of a broad spectrum of caspases. […] The percentage of apoptotic chondrocytes was related to load intensity and correlated with the level of GAG release from cartilage. […] This identifies a new approach to limit traumatic cartilage injury and the subsequent development of secondary osteoarthritis.
Loading apparatus and procedure. A model to simulate acute joint injury was used in this study based on injury models reported by Repo and Finlay, and Jeffrey et al. (Repo, et al. (1977) J. Bone Joint Surg. Am. 59A, 1068-1076, Jeffrey, et al. (1995) Arch. Biochem. Biophys. 322, 87-96). Although these reported models impacted cartilage using drop towers, a more controlled method was chosen for applying and maintaining stress or strain as follows. An Instron 8511 servohydraulic testing machine (Instron Corporation, Boston, Mass.) was used to mechanically load the cartilage explants. Explants were transported from the incubator to the Instron machine in sealed cell culture dishes. The explant was centralized on a stainless steel loading platform and a radially unconfined compressive load was applied through an impermeable stainless steel platen. A small preload (0.1 MPa) was applied for 2 minutes, followed by a single 500 msec trapezoidal loading waveform at the selected stress. The stress rose from 0.1 MPa to the chosen stress level in 100 msec and was maintained for 500 msec. Three stress levels were chosen to represent acute joint injury. 7 MPa has been reported to be the upper limit of physiologic stress developed during activities of daily living (von Eisenhart, et al. (1999) J. Orthop. Res. 17, 532-539). 23 MPa is the stress above which the underlying bone has been reported to fracture (Haut (1989) J. Orthop. Res. 7, 272-280). Control explants were placed in the loading apparatus but not loaded. […] Stress and strain data were recorded during the test. […]

[2] = tested on: femoral and tibial articular cartilage; assay: Intraarticular injection of caspase inhibitor in rabbits with anterior cruciate ligament transection (ACLT); format: in vivo, New Zealand White rabbits; conditions: rabbit bilateral ACLT, 25 μg intra-articular three times per week for six weeks
Description: Intraarticular injection of caspase inhibitor in rabbits with ligament transection. A pilot study was performed to assess feasibility and efficacy of caspase inhibition in vivo. Eight New Zealand White rabbits were divided into anterior cruciate ligament transection (ACLT) and ACLT+ caspase inhibitor (CI) groups. Both groups underwent bilateral ACLT. The ACLT+CI group was treated with intra-articular injections of 25 μg of z-VAD.fmk three times per week for six weeks while the control group received saline injections. Rabbits were euthanised at six weeks and femoral and tibial articular cartilage evaluated by India ink staining and histologic Mankin grading after Safranin-O stain.
Histologically, more knees from the ACLT group had higher Mankin scores. 87% (⅞) ACLT knees had grades 5 or higher, while 50% ( 4/8) ACLT+CI knees were graded 5 or higher. The India ink stained femoral condyles were photographed and digital images were used to quantify the surface areas of the lesions.

[3] = tested on: bovine cartilage explants; assay: Glycosaminoglycan release assay (DMMB) in injured bovine cartilage explants; format: cell-based; conditions: bovine explants after mechanical injury, z-VAD.fmk 100 μM, 48 hours
Description: Glycosaminoglycan release assay. To estimate GAG depletion and release, the concentration of sulfated glycosaminoglycans was measured using […] (DMMB) as a monitor of spectrophotometric changes which occur during the formation of the sulfated GAG dye complex (Farndale, et al. (1986) Biochim. Biophys. Acts. 883, 173-177, Goldberg, et al. (1993) Agents Actions 39 Spec No, C163-C165). For GAG content measurement, samples were digested in papain and collagenase and the concentration of sulfated GAG measured using DMMB. To generate a standard curve, chondroitin-6-sulfate (Sigma, St. Louis, Mo.) was used at concentrations between 1 and 200 μg/ml. GAG released in media was normalized to the pooled mean GAG content of Control (uninjured) cartilage explants and expressed as a percentage of total GAG content.
Inhibition of apoptosis. To determine whether apoptosis could be prevented by caspase inhibition, 12 explants were loaded at 23 MPa (High Load) and cultured for 48 hours. […] Percent apoptosis and GAG release in media was measured as described above.
Release of sulfated glycosaminoglycans (GAG) was analyzed as a measure of the extent of damage sustained by the explant. […] GAG depletion was assessed by dimethylene blue binding assays of the culture supernatants and this correlated with the reduced of safranin O staining of the cartilage sections.

human cartilage explants = assay: Apoptosis (TUNEL) in mechanically injured human cartilage explants; format: cell-based; conditions: for Mean (±SD) apoptosis rates, Loaded + Agent: human cartilage (femoral condyles and tibial plateaus), in vitro, n = 8 to 10
Excerpt: Cartilage explants. Macroscopically normal tibial and femoral articular surfaces were selected from human cadaver donors between 18 and 45 years of age. Using sterile techniques, full thickness cartilage was separated from underlying subchondral bone with a scalpel. 5 mm diameter cylindrical explants, ranging from 2 to 2.8 mm in thickness, cored out using a dermal punch (Acuderm, Inc., Ft. Lauderdale, Fla.). Explants taken from adjacent sites were used as matched controls for each group in each experiment to minimize variation in cartilage response due to differences in thickness and location within the joint. Each explant was weighed and allowed to stabilize at 37° C. and 5% CO2 for 48 hours in Dulbecco's modified Eagle's medium (DMEM) supplemented with 5% fetal bovine serum (FBS), L-glutamine, antibiotics and […] ascorbic acid.
Loading apparatus and procedure. An Instron 8511 servohydraulic testing machine (Instron Corporation, Boston, Mass.) was used to mechanically load the cartilage explants. Explants were transported from the incubator to the Instron machine in sealed cell culture dishes. The total time duration of loading for a single experiment varied from approximately 1 to 2 hours depending on the number of samples. During this time, explants were maintained at 37° C. The explant was centralized on a stainless steel loading platform and a radially unconfined compressive load was applied through an impermeable stainless steel platen. […] Stress and strain data were recorded during the test.
Caspase inhibition. […] Percentage apoptosis was measured at 96 hours post-injury in three groups (control, loaded, and loaded with z-VAD.fmk) with ten explants each in two separate experiments.
Apoptosis detection. […] This was detected by immunohistochemical staining with M30 (Cytodeath, Boehringer Mannheim, Eugene, Oreg.), a monoclonal antibody that recognizes the neo-epitope exposed in early apoptosis.
Chondrocyte apoptosis after mechanical injury to human cartilage. […] GAG release and percentage of cells undergoing apoptosis were measured at 96 hours after injury. […]

Row | Compound | Mean (±SD) apoptosis rates, Loaded + Agent [1] | chondrocyte apoptosis after mechanical injury (result in words) ([1]; bovine explants, z-VAD.fmk 100 μM, 23 MPa, 48 hours) | reduction in the apoptosis rate ([1]; high and intermediate load groups, bovine explants) | reduction of the size of the cartilage lesions (surface area, India ink stained femoral condyles) [2] | knees with histologic Mankin grades 5 or higher ([2]; 4/8 knees, ACLT saline group 87%) | cartilage lesions under India ink examination (area, grade) ([2]; ACLT group grade III to IVa, listed as caspase inhibitor) | GAG release / GAG depletion [3] | GAG release / GAG depletion ([3]; listed as pan-caspase inhibitor) | Mean (±SD) apoptosis rates, Loaded + Agent (human cartilage explants; loaded at 23 MPa) | mean reduction in apoptotic rates (human cartilage explants; human explants cultured in z-VAD.fmk immediately after injury, 30% strain, 96 hours post-injury) | Mean (±SD) apoptosis rates, Loaded + Agent (human cartilage explants; loaded at 30% strain)
1 | C[C@@H]1C[C@H]2[C@@H]3CCC4=CC(=O)C=C[C@]4(C)[C@@]3(F)[C@@H](O)C[C@]2(C)[C@@]1(O)C(=O)CO [Dexameth.] | 47 (±11.2) % | – | – | – | – | – | – | – | – | – | –
2 | COC(=O)CC(NC(=O)C(C)NC(=O)C(NC(=O)OCc1ccccc1)C(C)C)C(=O)CF (stereo not drawn) [z-VAD.fmk, benzyloxycarbonyl-Val-Ala-Asp (OMe) fluoromethylketone] (Cbz-Val-Ala-Asp(OMe)-CH2F; configuration not given here) | 31 (±13.9) % | reduced chondrocyte apoptosis | > 50% | ~80% | 50% | lesions that were smaller in area; also recorded: ranged from II (minimum fibrillation) | normalization of the GAG depletion | reduction in GAG release | 34 (±10.2) % | 50% | –
3 | IGF-1: agent IGF-1 tested for pharmacologic modulation of apoptosis after cartilage injury in vitro | 42 (±10.9) % | – | – | – | – | – | – | – | – | – | 10 (±6.2) %
